# Results taken from patent US9890133B2 (priority 2011, dated 2018).
# Legend:
# in vitro = conditions: human
# Poliovirus 3 = assay: microbe, parasite or virus in culture; assay type: cell-based; conditions: Enterovirus C, read-out: Poliovirus3 EC50
Compound,melting point,CC50 (in vitro; Picorana CC50),CC50 (in vitro),EC50 (Poliovirus 3)
"COc1cc2c(cc1OC)[C@]1(O)Oc3cc(C(C)C)ccc3[C@]1(O)C2=O [Example 81, 4b,9b-Dihydroxy-7-isopropyl-2,3-dimethoxy-4bH-benzo[d]indeno[1,2-b]furan-10(9bH)-one]",127 to 129 °C,8.61 µg/mL,–,–
"CC(C)c1ccc2c(c1)O[C@@]1(O)c3cc4ccccc4cc3C(=O)[C@@]21O [Example 44, 4b,9b-Dihydroxy-7-isopropyl-1H-cyclopenta[b]naphthalene o[1,2-b]furan-10(9bH)-one]",186 to 189 °C,6.25 µg/mL,–,–
"CCc1ccc2c(c1)OC1(O)c3ccc(O)cc3C(=O)C21O (centres unmarked) [Example 52, 7-Ethyl-2,4b,9b-trihydroxy-4b,9b-dihydro-5-oxa-indeno[2,1-a]inden-10-one]",208 to 213 °C,> 50 µg/mL,–,–
"CC(=O)OC12Oc3c(C(C)(C)C)cc(C(C)(C)C)cc3C1(OC(C)=O)C(=O)c1ccccc12 (centres unmarked) [Example 25, 6,8-di-tert-Butyl-10-oxo-9b,10-dihydro-4bH-benzo[d]indeno[1,2-b]furane-4b,9b-diyl diacetate]",242 to 247 °C,> 50 µg/mL,–,–
"CC(C)(C)c1ccc2c(c1)C1(O)C(=O)c3ccccc3C1(O)O2 (centres unmarked) [Example 20, 8-tert-Butyl-4b,9b-dihydroxy-4bH-benzo[d]indeno[1,2-b]furan-10(9bH)-one]",187 to 188 °C,7.93 µg/mL,–,–
"CCc1ccc2c(c1)C1(O)C(=O)c3ccccc3C1(O)O2 (centres unmarked) [Example 18, 8-Ethyl-4b,9b-dihydroxy-4bH-benzo[d]indeno[1,2-b]furan-10(9bH)-one]",157 to 159 °C,37.5 µg/mL,–,–
"CC(C)(C)c1cccc2c1OC1(O)c3ccccc3C(=O)C21O (centres unmarked) [Example 21, 6-tert-Butyl-4b,9b-dihydroxy-4bH-benzo[d]indeno[1,2-b]furan-10(9bH)-one]",148 to 152 °C,32.1 µg/mL,–,–
"CC(=O)OC12Oc3cc(C(C)C)ccc3C1(OC(C)=O)C(=O)c1ccccc12 (centres unmarked) [Example 11, 7-Isopropyl-10-oxo-9b,10-dihydro-4bH-benzo[d]indeno[1,2-b]furane-4b,9b-diyl diacetate]",138 to 140 °C,16.2 µg/mL,–,–
"Cc1cc2c(c(C)c1C)C1(O)C(=O)c3ccccc3C1(O)O2 (centres unmarked) [Example 22, 4b,9b-Dihydroxy-7,8,9-trimethyl-4bH-benzo[d]indeno[1,2-b]furan-10(9bH)-one]",212 to 214 °C,8.01 µg/mL,–,–
"Cc1cc2c(cc1C)C1(O)Oc3cc(C(C)C)ccc3C1(O)C2=O (centres unmarked) [Example 82, 4b,9b-dihydroxy-7-isopropyl-2,3-dimethyl-4bH-benzo[d]indeno[1,2-b]furan-10(9bH)-one]",138 to 140 °C,1.9 µg/mL,–,–
CCOC(=O)N[C@@]12C(=O)c3ccccc3[C@]1(O)Oc1cc(C(C)C)ccc12,115 to 118 °C,–,–,–
"CCc1ccc2c(c1)OC1(O)c3ccccc3C(=O)C21O (centres unmarked) [Example 9, 7-Ethyl-4b,9b-dihydroxy-4bH-benzo[d]indeno[1,2-b]furan-10(9bH)-one]",168 to 169 °C,18 µg/mL,–,–
"CC(=O)Nc1cccc2c1C(=O)C1(NC(C)=O)c3ccc(C(C)C)cc3OC21O (centres unmarked) [Example 57, N,N′-(4b-Hydroxy-7-isopropyl-10-oxo-9b,10-dihydro-4bH-benzo[d]indeno[1,2-b]furane-1,9b-diyl)diacetamide]",189 to 191 °C,46.7 µg/mL,–,–
"CC(C)c1ccc2c(c1)OC1(O)c3c(N)ccc(N)c3C(=O)C21O (centres unmarked) [Example 61, 1,4-diamino-4b,9b-dihydroxy-7-isopropyl-4bH-benzo[d]indeno[1,2-b]furan-10(9bH)-one]",223 to 231 °C,> 50 µg/mL,–,–
"O=C1c2ccccc2C2(O)Oc3c(ccc(Cl)c3Cl)C12O (centres unmarked) [Example 8, 6,7-Dichloro-4b,9b-dihydroxy-4bH-benzo[d]indeno[1,2-b]furan-10(9bH)-one]",142 to 150 °C,44.1 µg/mL,–,–
"CCN(CC)C(=O)OC12Oc3cc(C(C)C)ccc3C1(O)C(=O)c1ccccc12 (centres unmarked) [Example 40, 9b-Hydroxy-7-isopropyl-10-oxo-9b,10-dihydro-4bH-benzo[d]indeno[1,2-b]furan-4b-yl diethylcarbamate]",127 to 130 °C,44 µg/mL,–,–
"CC(C)c1ccc2c(c1)O[C@@]1(O)c3cccc(O)c3C(=O)[C@@]21O [Example 43, 1,4b,9b-Trihydroxy-7-isopropyl-4bH-benzo[d]indeno[1,2-b]furan-10(9bH)-one]",205 to 207 °C,–,33.2 µg/mL,–
"CC(C)c1ccc2c(c1)OC1(OCCO)c3ccccc3C(=O)C21O (centres unmarked) [Example 79, 9b-Hydroxy-4b-(2-hydroxyethoxy)-7-isopropyl-4bH-benzo[d]indeno[1,2-b]furan-10(9bH)-one]",100 to 105 °C,10.4 µg/mL,–,–
"CCCCCCCCCc1ccc2c(c1)C1(O)C(=O)c3ccccc3C1(O)O2 (centres unmarked) [Example 26, 4b,9b-Dihydroxy-8-nonyl-4bH-benzo[d]indeno[1,2-b]furan-10(9bH)-one]",108 to 110 °C,< 4 µg/mL,–,–

Compound,melting point,CC50 (in vitro; Picorana CC50),CC50 (in vitro),EC50 (Poliovirus 3)
"COc1ccc2c(c1)C1(O)C(=O)c3ccccc3C1(O)O2 (centres unmarked) [Example 12, 4b,9b-Dihydroxy-8-methoxy-4bH-benzo[d]indeno[1,2-b]furan-10(9bH)-one]",186 to 189 °C,> 50 µg/mL,–,–
CC(=O)OC12Oc3cc(C(C)C)ccc3C1(OC(C)=O)C(=O)c1c([N+](=O)[O-])cccc12 (centres unmarked) [Example 53],201 to 203 °C,45.6 µg/mL,–,–
"O=C1c2ccccc2C2(O)Oc3c(ccc4ccccc34)C12O (centres unmarked) [Example 16, 6b,11b-Dihydroxy-6bH-indeno[1,2-b]naphtho[2,1-d]furan-7(11 bH)-one]",216 to 218 °C,7.82 µg/mL,–,–
CC(C)NC(=O)Nc1cccc2c1C(=O)C1(O)c3ccc(C(C)C)cc3OC21O (centres unmarked) [Example 55],81 to 85 °C,7.49 µg/mL,–,–
"Cc1ccc2c(c1)OC1(O)c3ccccc3C(=O)C21O (centres unmarked) [Example 1, 4b,9b-Dihydroxy-7-methyl-4bH-benzo[d]indeno[1,2-b]furan-10(9bH)-one]",145 to 147 °C,> 50 µg/mL,–,–
"CC(C)c1ccc2c(c1)OC1(O)c3cc(F)c(F)cc3C(=O)C21O (centres unmarked) [Example 42, 2,3-Difluoro-4b,9b-dihydroxy-7-isopropyl-4bH-benzo[d]indeno[1,2-b]furan-10(9bH)-one]",134 to 136 °C,8.94 µg/mL,–,–
"CC(C)c1ccc2c(c1)OC1(OC(=O)c3ccco3)c3ccccc3C(=O)C21O (centres unmarked) [Example 36, 9b-Hydroxy-7-isopropyl-10-oxo-9b,10-dihydro-4bH-benzo[d]indeno[1,2-b]furan-4b-yl furane-2-carboxylatefurane-2-carboxylic acid]",116 to 120 °C,9.34 µg/mL,–,–
"CCOC(=O)OC12Oc3cc(C(C)C)ccc3C1(OC(=O)OCC)C(=O)c1ccccc12 (centres unmarked) [Example 37, Diethyl 7-isopropyl-10-oxo-9b,10-dihydro-4bH-benzo[d]indeno[1,2-b]furane-4b,9b-diyl dicarbonate]",150 to 153 °C,9.68 µg/mL,–,–
"CCC(C)(C)c1ccc2c(c1)C1(O)C(=O)c3ccccc3C1(O)O2 (centres unmarked) [Example 23, 4b,9b-Dihydroxy-8-tert-pentyl-4bH-benzo[d]indeno[1,2-b]furan-10(9bH)-one]",175 to 176 °C,9.3 µg/mL,–,–
"COC(=O)N[C@@]12C(=O)c3ccccc3[C@]1(O)Oc1cc(C(C)C)ccc12 [Example 84, Methyl (4bS,9bS)-4b-hydroxy-7-isopropyl-10-oxo-9b,10-dihydro-4bH-benzo[d]indeno[1,2-b]furan-9b-ylcarbamate]",161 to 163 °C,> 50 µg/mL,–,–
"CC(C)c1ccc2c(c1)O[C@@]1(O)c3cccc([N+](=O)[O-])c3C(=O)[C@@]21O [Example 80, 4b,9b-Dihydroxy-7-isopropyl-1-nitro-4bH-benzo[d]indeno[1,2-b]furan-10(9bH)-one]",186 to 188 °C,47.5 µg/mL,–,–
"CCOC(=O)OC12Oc3cc(C(C)C)ccc3C1(O)C(=O)c1ccccc12 (centres unmarked) [Example 38, Ethyl 9b-hydroxy-7-isopropyl-10-oxo-9b,10-dihydro-4bH-benzo[d]indeno[1,2-b]furan-4b-yl carbonate]",144 to 147 °C,9.5 µg/mL,–,–
"CCN(CC)C(=O)OC12C(=O)c3ccccc3C1(O)Oc1cc(C(C)C)ccc12 (centres unmarked) [Example 41, 4b-Hydroxy-7-isopropyl-10-oxo-9b,10-dihydro-4bH-benzo[d]indeno[1,2-b]furan-9b-yl diethylcarbamate]",101 to 104 °C,27.1 µg/mL,–,–
"CCCCCCCCCCCCCCCc1ccc2c(c1)C1(O)C(=O)c3ccccc3C1(O)O2 (centres unmarked) [Example 27, 4b,9b-Dihydroxy-8-pentadecyl-4bH-benzo[d]indeno[1,2-b]furan-10(9bH)-one]",105 to 110 °C,43.9 µg/mL,–,–
CC(=O)Nc1cccc2c1C(=O)C1(N)c3ccc(C(C)C)cc3OC21O (centres unmarked) [Example 56],152 to 156 °C,42.2 µg/mL,–,–
"CC(=O)Nc1cccc2c1C(=O)C1(O)c3ccc(C(C)C)cc3OC21O (centres unmarked) [Example 48, N-(4b,9b-Dihydroxy-7-isopropyl-10-oxo-9b,10-dihydro-4bH-benzo[d]indeno[1,2-b]furan-1-yl)acetamide]",152 to 154 °C,35 µg/mL,–,–
"COC(=O)OC12Oc3cc(C(C)C)ccc3C1(NC(C)=O)C(=O)c1c(N)cccc12 (centres unmarked) [Example 113, 9b-acetamido-1-amino-7-isopropyl-10-oxo-9b,10-dihydro-4bH-indeno[1,2-b]benzofuran-4b-yl methyl carbonate]",–,45.5 µg/mL,48.8 µg/mL,< 0.01 µg/mL
"Cc1nn(C)c2ncc(C(=O)NC34C(=O)c5c(N)cccc5C3(O)Oc3cc(C(C)C)ccc34)cc12 (centres unmarked) [Example 271, N-(1-Amino-4b-hydroxy-7-isopropyl-10-oxo-9b,10-dihydro-4bH-indeno[1,2-b]benzofuran-9b-yl)-1,3-dimethyl-1H-pyrazolo[3,4-b]pyridine-5-carboxamide]",–,–,> 10 µg/mL,< 0.01 µg/mL
